Experiments:
Format in all cases: physicochemical
[1] = Multi stage cross-current back-extraction from isobutyl acetate at pH 6, distribution coefficient by HPLC; conditions: water/isobutyl acetate
Experimental: (§1) HPLC analysis was based on reversed phase liquid chromatography followed by UV-detection at 238 nm. Apparatus: Dionex HPLC-UV system comprising of a P680 pump, a TCC-100 column compartment with thermostat, a WPS-3000 auto sampler and a UVD34OU PDA detector.
(§2) pH values mentioned in the description and claims of the present application were measured using a Radiometer PHM82 standard pH meter equipped with a Mettler Toledo Inlab 412 pH electrode (electrolyte 9823). Equilibration was carried out at 20±1° C. using a Merck pH 4.00 buffer (art. nr. 1.09435.1000) and a Merck pH 7.00 buffer (art. nr. 1.09439.1000).
Starting material for this experiment was broth filtrate, obtained after ultra-filtration of broth obtained by fermentation of Penicillium chrysogenum transformant T1.48 as described in Example 4 of WO 2007/147827 using a 50 nm poly-sulfone membrane. The filtrate (2 liter, containing 1.2 g/l pravastatin and 0.37 g/l compactin) was extracted twice with isobutyl acetate (2×1 liter) at pH 4. For a clear phase separation, the organic phases were filtered through a Seitz Z-2000 filter plate. The organic phases were combined and washed with water (500 ml), giving isobutyl acetate extract (1960 ml) which was concentrated to 100 ml under vacuum at T<40° C. The concentrate was decolorized using a coal cartridge filled with Cuno C55 carbon (1.8 g carbon; diameter of carbon plate 18 cm^2). After rinsing a clear solution (150 ml) was obtained containing ˜12 g/l pravastatin and 3.8 g/l compactin. This solution was extracted three times with water (3×150 ml) at pH 6. The pH was adjusted with 25% ammonia. The aqueous and organic phases were analyzed with HPLC (Table 3). As can be calculated, after the second back-extraction the total extraction yield of pravastatin in the combined aqueous phases was 97.6% pravastatin and after the third back-extraction the total extraction yield of pravastatin in the combined aqueous phases was 99.6%. The ratio pravastatin:compactin was 3:1 in the starting mixture, 45:1 after one back-extraction, 25:1 after two back-extractions and 17:1 after three back-extractions.

[2] = Batch-wise single stage back-extraction from ethyl acetate into water, distribution coefficient by HPLC
Experimental: as §1, §2
A broth obtained by fermentation of Penicillium chrysogenum transformant T1.48 as described in Example 4 of WO 2007/147827 (2 liter, containing 2.5 g/kg pravastatin and 0.8 g/kg compactin) was centrifuged and the supernatant was divided into 2 portions of 800 ml. One of these portions of supernatant (800 ml), ethyl acetate (800 ml) and dicalite 448 (20 g) were mixed and the pH was adjusted to 4 with 6N sulfuric acid. The mixture was filtered over a Seitz Z-2000 filter plate. The phases of the filtrate were separated and the organic phase was washed once with water (400 ml), giving an ethyl acetate extract (700 ml) which was divided into eight portions of 80 ml and one of 60 ml. Each portion was mixed with an equal volume of water at a certain pH, varying from 4.5 to 8. After mixing, the phases were separated and analyzed by HPLC.

[3] = Batch-wise single stage back-extraction from methyl isobutyl ketone into water, distribution coefficient by HPLC
Experimental: as §1, §2
One of the portions of supernatant (800 ml) obtained in Example 1, methyl isobutyl ketone (800 ml) and dicalite 448 (20 g) were mixed and the pH was adjusted to 4 with 6N sulfuric acid. The mixture was filtered over a Seitz Z-2000 filter plate. The phases of the filtrate were separated and the organic phase was washed once with water (400 ml), giving a methyl isobutyl ketone extract (750 ml) from which eight portions of 80 ml were taken. Each portion was mixed with an equal volume of water at a certain pH, varying from 4.5 to 8. After mixing, the phases were separated and analyzed by HPLC.

[4] = Multi stage cross-current back-extraction from ethyl acetate at pH 5.9, distribution coefficient by HPLC; conditions: water/ethyl acetate
Experimental: as §1, §2
Starting material for this experiment was broth filtrate, obtained after ultra-filtration of broth obtained by fermentation of Penicillium chrysogenum transformant T1.48 as described in Example 4 of WO 2007/147827 using a 50 nm poly-sulfone membrane. The filtrate (5.25 liter, containing 1.2 g/l pravastatin and 0.37 g/l compactin) was extracted twice with ethyl acetate (2×2.5 liter) at pH 4. For a clear phase separation, the organic phases were filtered through a Seitz Z-2000 filter plate. The extraction yields were 90.6% and 8.3% respectively, so the overall extraction yield was 98.9%. The organic phases were combined and washed with water (2.5 liter), giving ethyl acetate extract (4.65 liter, yield over the wash step 97%) which was concentrated to 250 ml under vacuum at T<40° C., giving a clear solution containing ˜25 g/l pravastatin. This solution was extracted three times with water (3×250 ml) at pH 5.9. The pH was adjusted with 4N sodium hydroxide. The aqueous and organic phases were analyzed with HPLC (Table 4). As can be calculated, after the second back-extraction the total extraction yield of pravastatin in the combined aqueous phases was 91% pravastatin and after the third back-extraction the total extraction yield of pravastatin in the combined aqueous phases was 96%. The ratio pravastatin:compactin was 3:1 in the starting mixture, 26:1 after one back-extraction, 19:1 after two back-extractions and 17:1 after three back-extractions.

| Compound | Distribution coefficient (CAqueous phase/COrganic phase) ([1]; pH 6, 1st extraction) | Distribution coefficient (CAqueous phase/COrganic phase) ([1]; pH 6, 2nd extraction) | Distribution coefficient (CAqueous phase/COrganic phase) ([1]; pH 6, 3rd extraction) | Distribution coefficient (CAqueous phase/COrganic phase) ([2]; pH 4.5) | Distribution coefficient (CAqueous phase/COrganic phase) ([2]; pH 5) | Distribution coefficient (CAqueous phase/COrganic phase) ([2]; pH 5.5) | Distribution coefficient (CAqueous phase/COrganic phase) ([2]; pH 6) | Distribution coefficient (CAqueous phase/COrganic phase) ([2]; pH 6.25) | Distribution coefficient (CAqueous phase/COrganic phase) ([2]; pH 6.5) | Distribution coefficient (CAqueous phase/COrganic phase) ([2]; pH 7) | Distribution coefficient (CAqueous phase/COrganic phase) ([2]; pH 7.5) | Distribution coefficient (CAqueous phase/COrganic phase) ([2]; pH 8) | Distribution coefficient (CAqueous phase/COrganic phase) ([3]; pH 4.5) | Distribution coefficient (CAqueous phase/COrganic phase) ([3]; pH 5) | Distribution coefficient (CAqueous phase/COrganic phase) ([3]; pH 5.5) | Distribution coefficient (CAqueous phase/COrganic phase) ([3]; pH 6) | Distribution coefficient (CAqueous phase/COrganic phase) ([3]; pH 6.5) | Distribution coefficient (CAqueous phase/COrganic phase) ([3]; pH 7) | Distribution coefficient (CAqueous phase/COrganic phase) ([3]; pH 7.5) | Distribution coefficient (CAqueous phase/COrganic phase) ([3]; pH 8) | further results |
| --- | --- | --- | --- | --- | --- | --- | --- | --- | --- | --- | --- | --- | --- | --- | --- | --- | --- | --- | --- | --- | --- |
| CC[C@H](C)C(=O)O[C@H]1CCC=C2C=C[C@H](C)[C@H](CC[C@@H](O)C[C@@H](O)CC(=O)[O-])[C@H]21.[Na+] [Comp, compactin] | 0.06 | 0.07 | 0.07 | 0.0 | 0.0 | 0.0 | 0.0 | 0.0 | 0.1 | 0.3 | 0.8 | 2.9 | 0.0 | 0.0 | 0.0 | 0.0 | 0.1 | 0.2 | 0.9 | 3.3 | Distribution coefficient (CAqueous phase/COrganic phase) ([4]; pH 5.9, 1st extraction): 0.08; Distribution coefficient (CAqueous phase/COrganic phase) ([4]; pH 5.9, 2nd extraction): 0.06; Distribution coefficient (CAqueous phase/COrganic phase) ([4]; pH 5.9, 3rd extraction): 0.03 |
| CC[C@H](C)C(=O)O[C@H]1C[C@H](O)C=C2C=C[C@H](C)[C@H](CC[C@@H](O)C[C@@H](O)CC(=O)[O-])[C@H]21.[Na+] [Prava, pravastatin] | 4.8 | 5.9 | 5.2 | 0.1 | 0.2 | 0.4 | 1.2 | 1.9 | 3.5 | 10.3 | 27.4 | 94.1 | 0.2 | 0.2 | 0.6 | 1.4 | 4.0 | 12.0 | 37.5 | 83.8 | Distribution coefficient (CAqueous phase/COrganic phase) ([4]; pH 5.9, 1st extraction): 1.5; Distribution coefficient (CAqueous phase/COrganic phase) ([4]; pH 5.9, 2nd extraction): 1.9; Distribution coefficient (CAqueous phase/COrganic phase) ([4]; pH 5.9, 3rd extraction): 0.7 |
